In patent US10053456B2, “Cyclopropanamine compound and use thereof” (Takeda Pharmaceutical Company Limited, priority 2014, dated 2018):
Where a name gives a salt, the structure may show the parent alone.

System: Gad1 H3K4me2 level in rat primary culture neurons
Test: Gad1 H3K4 methylation induction activity in rat primary culture neurons (ChIP, quantitative PCR)
Assay type: cell-based
Settings: Neuron, 72 h, 3 days culture, control without compound = 100%

SMILES: Cc1nnc(NC(=O)c2cc([C@@H]3C[C@H]3NC3CCC3)cs2)s1 [Example 118, 4-((1S,2R)-2-(cyclobutylamino)cyclopropyl)-N-(5-methyl-1,3,4-thiadiazol-2-yl)thiophene-2-carboxamide sulfate]
- activity at 10 µM: 233%
